Assay results taken from ChEMBL document CHEMBL1201862, “PubChem BioAssay data set” (2004).
Counter-ions that a name gives are not always drawn.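 Where inhibition never reached the appropriate level, the endpoint shown equals the highest concentration tested. Otherwise, values were interpolated linearly from a five-concentration, 48-hour dose response in 96-well plates. At the GI50, growth is halved.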 Activity calls are given as the source filed them. No stated cut-off is given here; in the data, active = GI50 up to about 1.1 µM and inactive = higher.

Legend:
Assay in all cases: inhibition of tumour cell growth, NCI panel, 48 h
786-0 = system: 786-0
A498 = system: A498
A549 = system: A549
ACHN = system: ACHN
CAKI-1 = system: CAKI-1
CCRF-CEM = system: CCRF-CEM
COLO 205 = system: COLO 205
DU-145 = system: DU-145
EKVX = system: EKVX
HCC 2998 = system: HCC 2998
HCT-116 = system: HCT-116
HCT-15 = system: HCT-15
HL-60 = system: HL-60
HOP-62 = system: HOP-62
HOP-92 = system: HOP-92
IGROV-1 = system: IGROV-1
K562 = system: K562
KM12 = system: KM12
LOX IMVI = system: LOX IMVI
M14 = system: M14
MCF7 = system: MCF7
MDA-MB-231 = system: MDA-MB-231
MDA-MB-435 = system: MDA-MB-435
MDA-N = system: MDA-N
MOLT-4 = system: MOLT-4
Malme-3M = system: Malme-3M
NCI-H226 = system: NCI-H226
NCI-H23 = system: NCI-H23
NCI-H522 = system: NCI-H522
NCI/ADR-RES = system: NCI/ADR-RES
OVCAR-3 = system: OVCAR-3
OVCAR-4 = system: OVCAR-4
OVCAR-5 = system: OVCAR-5
OVCAR-8 = system: OVCAR-8
PC-3 = system: PC-3
RPMI-8226 = system: RPMI-8226
RXF 393 = system: RXF 393
SF-295 = system: SF-295
SF-539 = system: SF-539
SK-MEL-28 = system: SK-MEL-28
SK-MEL-2 = system: SK-MEL-2
SK-MEL-5 = system: SK-MEL-5
SK-OV-3 = system: SK-OV-3
SN12C = system: SN12C
SNB-19 = system: SNB-19
SNB-75 = system: SNB-75
SW-620 = system: SW-620
T47D = system: T47D
TK-10 = system: TK-10
U-251 = system: U-251
UACC-257 = system: UACC-257
UACC-62 = system: UACC-62
UO-31 = system: UO-31
HT-29 = system: HT-29
SF-268 = system: SF-268
SR = system: SR
NCI-H460 = system: NCI-H460

## COc1ccc(-n2c(=O)n(-c3ccccc3)c(=O)n2-c2ccc(OC)cc2)cc1
786-0
  GI50: > 100 µM (inactive)
A498
  GI50: > 100 µM (inactive)
A549
  GI50: > 100 µM (inactive)
ACHN
  GI50: > 100 µM (inactive)
CAKI-1
  GI50: 1.78 µM (inactive)
CCRF-CEM
  GI50: > 100 µM (inactive)
COLO 205
  GI50: > 100 µM (inactive)
DU-145
  GI50: > 100 µM (inactive)
EKVX
  GI50: > 100 µM (inactive)
HCC 2998
  GI50: > 100 µM (inactive)
HCT-116
  GI50: > 100 µM (inactive)
HCT-15
  GI50: > 100 µM
HL-60
  GI50: > 100 µM (inactive)
HOP-62
  GI50: > 100 µM (inactive)
HOP-92
  GI50: 27.7 µM (inactive)
IGROV-1
  GI50: > 100 µM (inactive)
K562
  GI50: 80.4 µM (inactive)
KM12
  GI50: > 100 µM (inactive)
LOX IMVI
  GI50: > 100 µM (inactive)
M14
  GI50: > 100 µM (inactive)
MCF7
  GI50: > 100 µM (inactive)
MDA-MB-231
  GI50: > 100 µM (inactive)
MDA-MB-435
  GI50: > 100 µM (inactive)
MDA-N
  GI50: > 100 µM (inactive)
MOLT-4
  GI50: > 100 µM (inactive)
Malme-3M
  GI50: > 100 µM (inactive)
NCI-H226
  GI50: > 100 µM (inactive)
NCI-H23
  GI50: > 100 µM (inactive)
NCI-H522
  GI50: > 100 µM (inactive)
NCI/ADR-RES
  GI50: > 100 µM (inactive)
OVCAR-3
  GI50: > 100 µM (inactive)
OVCAR-4
  GI50: > 100 µM (inactive)
OVCAR-5
  GI50: > 100 µM (inactive)
OVCAR-8
  GI50: > 100 µM (inactive)
PC-3
  GI50: > 100 µM (inactive)
RPMI-8226
  GI50: > 100 µM (inactive)
RXF 393
  GI50: > 100 µM (inactive)
SF-295
  GI50: > 100 µM (inactive)
SF-539
  GI50: > 100 µM (inactive)
SK-MEL-28
  GI50: > 100 µM (inactive)
SK-MEL-2
  GI50: > 100 µM (inactive)
SK-MEL-5
  GI50: > 100 µM (inactive)
SK-OV-3
  GI50: > 100 µM (inactive)
SN12C
  GI50: > 100 µM (inactive)
SNB-19
  GI50: > 100 µM (inactive)
SNB-75
  GI50: > 100 µM (inactive)
SW-620
  GI50: > 100 µM (inactive)
T47D
  GI50: > 100 µM (inactive)
TK-10
  GI50: > 100 µM (inactive)
U-251
  GI50: > 100 µM (inactive)
UACC-257
  GI50: > 100 µM (inactive)
UACC-62
  GI50: > 100 µM (inactive)
UO-31
  GI50: > 100 µM (inactive)

## CCN(CC)CCC/N=c1\c2cc(OC)ccc2[nH]c2c([N+](=O)[O-])ccc(NCCCN(CC)CC)c12
786-0
  GI50: 1.45 µM (inactive)
A549
  GI50: 1.78 µM (inactive)
CAKI-1
  GI50: 9.66 µM (inactive)
CCRF-CEM
  GI50: 0.479 µM (active)
COLO 205
  GI50: 5.13 µM (inactive)
DU-145
  GI50: 5.13 µM (inactive)
EKVX
  GI50: 3.97 µM (inactive)
HCC 2998
  GI50: 1.49 µM (inactive)
HCT-15
  GI50: 1.43 µM
HL-60
  GI50: 0.3 µM (active)
HOP-62
  GI50: 4.47 µM (inactive)
HT-29
  GI50: 1.6 µM (inactive)
IGROV-1
  GI50: 3.42 µM (inactive)
K562
  GI50: 1.77 µM (inactive)
KM12
  GI50: 1.52 µM (inactive)
LOX IMVI
  GI50: 1.34 µM (inactive)
M14
  GI50: > 10 µM (inactive)
MCF7
  GI50: 1.54 µM (inactive)
MDA-MB-231
  GI50: 1.49 µM (inactive)
MDA-N
  GI50: 5.77 µM (inactive)
MOLT-4
  GI50: 0.484 µM (active)
Malme-3M
  GI50: > 10 µM (inactive)
NCI-H23
  GI50: 2.26 µM (inactive)
OVCAR-8
  GI50: 1.03 µM (active)
PC-3
  GI50: 1.47 µM (inactive)
RPMI-8226
  GI50: 1.72 µM (inactive)
RXF 393
  GI50: 1.95 µM (inactive)
SF-268
  GI50: 2.87 µM (inactive)
SK-MEL-28
  GI50: > 10 µM (inactive)
SK-MEL-5
  GI50: 9.42 µM (inactive)
SK-OV-3
  GI50: 3.08 µM (inactive)
SN12C
  GI50: 2.04 µM (inactive)
SNB-75
  GI50: > 10 µM (inactive)
SW-620
  GI50: 1.69 µM (inactive)
T47D
  GI50: > 10 µM (inactive)
TK-10
  GI50: 8.24 µM (inactive)
UACC-257
  GI50: > 10 µM (inactive)
UACC-62
  GI50: > 10 µM (inactive)

## COc1ccc(C(=O)/C=C/c2ccc(OCC(=O)N3CCN(c4ccccc4)CC3)cc2)cc1OC
786-0
  GI50: 5.31 µM (inactive)
A549
  GI50: 5.36 µM (inactive)
CAKI-1
  GI50: 5.28 µM (inactive)
CCRF-CEM
  GI50: 2.52 µM (inactive)
COLO 205
  GI50: > 10 µM (inactive)
DU-145
  GI50: 1.42 µM (inactive)
EKVX
  GI50: 7.01 µM (inactive)
HCC 2998
  GI50: 5.3 µM (inactive)
HCT-15
  GI50: 4.84 µM
HL-60
  GI50: 2.88 µM (inactive)
HOP-62
  GI50: 4.46 µM (inactive)
HT-29
  GI50: 4.07 µM (inactive)
IGROV-1
  GI50: 9.38 µM (inactive)
K562
  GI50: 3.14 µM (inactive)
KM12
  GI50: 4.15 µM (inactive)
M14
  GI50: 6.28 µM (inactive)
MCF7
  GI50: 2.9 µM (inactive)
MDA-MB-231
  GI50: 4.69 µM (inactive)
MDA-N
  GI50: 3.21 µM (inactive)
MOLT-4
  GI50: 2.34 µM (inactive)
Malme-3M
  GI50: 5.96 µM (inactive)
NCI-H23
  GI50: 2.05 µM (inactive)
OVCAR-8
  GI50: 4.29 µM (inactive)
PC-3
  GI50: 3.56 µM (inactive)
RPMI-8226
  GI50: 3.33 µM (inactive)
RXF 393
  GI50: 1.83 µM (inactive)
SF-268
  GI50: 3.39 µM (inactive)
SF-295
  GI50: 6.3 µM (inactive)
SK-MEL-28
  GI50: 6.68 µM (inactive)
SK-MEL-5
  GI50: 4.52 µM (inactive)
SK-OV-3
  GI50: 6.07 µM (inactive)
SN12C
  GI50: 4.82 µM (inactive)
SNB-75
  GI50: 3.72 µM (inactive)
SR
  GI50: 2.18 µM (inactive)
SW-620
  GI50: 5.73 µM (inactive)
T47D
  GI50: 5.89 µM (inactive)
TK-10
  GI50: > 10 µM (inactive)
UACC-257
  GI50: 3.37 µM (inactive)
UACC-62
  GI50: 5.58 µM (inactive)

## COc1cc([C@@H]2c3cc4c(cc3[C@@H](Nc3ccc(NC(=O)c5cc([N+](=O)[O-])cn5C)cc3)[C@H]3COC(=O)[C@H]23)OCO4)cc(OC)c1O
786-0
  GI50: 0.0491 µM (active)
A549
  GI50: < 0.0124 µM (active)
ACHN
  GI50: 0.0213 µM (active)
CCRF-CEM
  GI50: < 0.01 µM (active)
COLO 205
  GI50: 0.254 µM (active)
DU-145
  GI50: 0.0143 µM (active)
EKVX
  GI50: 0.333 µM (active)
HCC 2998
  GI50: 0.243 µM (active)
HCT-116
  GI50: 0.114 µM (active)
HCT-15
  GI50: 0.365 µM
HL-60
  GI50: 0.0176 µM (active)
HOP-62
  GI50: 0.0179 µM (active)
HOP-92
  GI50: 0.132 µM (active)
HT-29
  GI50: 0.171 µM (active)
IGROV-1
  GI50: 0.173 µM (active)
K562
  GI50: 0.108 µM (active)
KM12
  GI50: 0.22 µM (active)
M14
  GI50: 0.0731 µM (active)
MCF7
  GI50: < 0.01 µM (active)
MOLT-4
  GI50: < 0.01 µM (active)
NCI-H23
  GI50: 0.0385 µM (active)
NCI-H460
  GI50: < 0.01 µM (active)
NCI-H522
  GI50: 0.272 µM (active)
OVCAR-3
  GI50: 0.427 µM (active)
OVCAR-5
  GI50: 0.419 µM (active)
OVCAR-8
  GI50: 0.141 µM (active)
PC-3
  GI50: 0.188 µM (active)
RXF 393
  GI50: 0.243 µM (active)
SF-268
  GI50: 0.191 µM (active)
SF-539
  GI50: 0.0577 µM (active)
SK-MEL-28
  GI50: 1.22 µM (inactive)
SK-MEL-2
  GI50: 1.21 µM (inactive)
SNB-19
  GI50: 0.0538 µM (active)
SNB-75
  GI50: 0.0498 µM (active)
SW-620
  GI50: 0.135 µM (active)
T47D
  GI50: 0.0266 µM (active)
TK-10
  GI50: 0.348 µM (active)
UACC-257
  GI50: 0.581 µM (active)
UACC-62
  GI50: 0.0828 µM (active)
UO-31
  GI50: 0.244 µM (active)

## COc1cc2nc(N3CCN(C(=O)c4ccco4)CC3)nc(N)c2cc1OC [PRAZOSIN HYDROCHLORIDE]
NCI-H23
  GI50: 13.7 µM (inactive)
